Earlier results in publication PMC11302729, “Repurposing Hsp90 inhibitors as antimicrobials targeting two-component systems identifies compounds leading to loss of bacterial membrane integrity” (Microbiology Spectrum, 2024).

Key:
[1] = tested on: PhoQ from Salmonella typhimurium; design: method as in PMID 29110989; settings: cited from earlier work
[2] = tested on: CckA from Caulobacter crescentus; design: method as in PMID 29110989; settings: cited from earlier work

COc1ccc(-c2c(-c3cc(Cl)c(O)cc3O)n[nH]c2C)cc1 [Compound 5b]
IC50 [1]: 238 µM
IC50 [2]: 14 µM

CCc1cc(-c2n[nH]c(C)c2-c2ccc3c(c2)OCCO3)c(O)cc1O [CCT018159]
IC50 [1]: 261 µM
IC50 [2]: 30 µM
